One compound from BindingDB's records for doi:10.1021/jm991038t (Max-Planck Research Unit, 1999) can be followed below.

The nature of this test: Inhibition constant(Ki) for inhibition of PPIase activity of Legionella pneumophilia FK506 binding protein 25 (Conc=40 nM) of FKBPs family.

The term Ki denotes the dissociation constant of the complex between target and ligand, obtained from inhibition or displacement. Read a high Ki as weaker binding.

Turning to `C[C@@H]1C[C@@H]([C@H](O)CC2CC(=O)NC(=O)C2)C(=O)[C@@H](C)C1` [Cycloheximid], the affinity, expressed as Ki, was 124 µM.
